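Where inhibition never reached the appropriate level, the endpoint shown equals the highest concentration tested. Otherwise, values were interpolated linearly from a five-concentration, 48-hour dose response in 96-well plates. Abbreviation: GI50, concentration required for 50% inhibition of growth.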 Calls of active or inactive are those of the source. No stated cut-off is given here; in the data, active = GI50 up to about 1.1 µM and inactive = higher.
How the values were obtained:
Assay in all cases: NCI anticancer screen, dose series, 48 h
DU-145 = tested on: DU-145
SK-MEL-5 = tested on: SK-MEL-5
UO-31 = tested on: UO-31
UACC-62 = tested on: UACC-62
HCT-116 = tested on: HCT-116
MOLT-4 = tested on: MOLT-4
SF-268 = tested on: SF-268
CCRF-CEM = tested on: CCRF-CEM
SF-539 = tested on: SF-539
HOP-62 = tested on: HOP-62
M14 = tested on: M14
Hs-578T = tested on: Hs-578T
SN12C = tested on: SN12C
RXF 393 = tested on: RXF 393
ACHN = tested on: ACHN
KM12 = tested on: KM12
TK-10 = tested on: TK-10
SK-MEL-2 = tested on: SK-MEL-2
MDA-MB-231 = tested on: MDA-MB-231
PC-3 = tested on: PC-3
MDA-MB-435 = tested on: MDA-MB-435
UACC-257 = tested on: UACC-257
HL-60 = tested on: HL-60
NCI-H226 = tested on: NCI-H226
SR = tested on: SR
NCI/ADR-RES = tested on: NCI/ADR-RES
RPMI-8226 = tested on: RPMI-8226
SW-620 = tested on: SW-620
U-251 = tested on: U-251
BT-549 = tested on: BT-549
786-0 = tested on: 786-0
HT-29 = tested on: HT-29
Malme-3M = tested on: Malme-3M
HCT-15 = tested on: HCT-15
OVCAR-5 = tested on: OVCAR-5
NCI-H460 = tested on: NCI-H460
OVCAR-8 = tested on: OVCAR-8
EKVX = tested on: EKVX
MDA-N = tested on: MDA-N
OVCAR-3 = tested on: OVCAR-3
SK-MEL-28 = tested on: SK-MEL-28
COLO 205 = tested on: COLO 205
MCF7 = tested on: MCF7
IGROV-1 = tested on: IGROV-1
SNB-75 = tested on: SNB-75
A498 = tested on: A498
SNB-19 = tested on: SNB-19
K562 = tested on: K562
SK-OV-3 = tested on: SK-OV-3
T47D = tested on: T47D
LOX IMVI = tested on: LOX IMVI
CAKI-1 = tested on: CAKI-1
NCI-H23 = tested on: NCI-H23
A549 = tested on: A549
SF-295 = tested on: SF-295
OVCAR-4 = tested on: OVCAR-4
HCC 2998 = tested on: HCC 2998
HOP-92 = tested on: HOP-92

SMILES: CC1CCCc2c(-c3ccc(Cl)cc3)nc(N)c(C#N)c21 (stereo not drawn)
- GI50 (DU-145): 39 µM (inactive)
- GI50 (SK-MEL-5): 18.3 µM (inactive)
- GI50 (UO-31): 21.6 µM (inactive)
- GI50 (UACC-62): 18.9 µM (inactive)
- GI50 (HCT-116): 22.3 µM (inactive)
- GI50 (MOLT-4): 20 µM (inactive)
- GI50 (SF-268): 69.3 µM (inactive)
- GI50 (CCRF-CEM): 21.1 µM (inactive)
- GI50 (SF-539): 25.5 µM (inactive)
- GI50 (HOP-62): 19.2 µM (inactive)
- GI50 (M14): 30 µM (inactive)
- GI50 (Hs-578T): 28.3 µM (inactive)
- GI50 (SN12C): 41.4 µM (inactive)
- GI50 (RXF 393): 27.2 µM (inactive)
- GI50 (ACHN): 38.5 µM (inactive)
- GI50 (KM12): 20.2 µM (inactive)
- GI50 (TK-10): 43.7 µM (inactive)
- GI50 (SK-MEL-2): 18.4 µM (inactive)
- GI50 (MDA-MB-231): > 100 µM (inactive)
- GI50 (PC-3): 21.6 µM (inactive)
- GI50 (MDA-MB-435): 30.1 µM (inactive)
- GI50 (UACC-257): 27.7 µM (inactive)
- GI50 (HL-60): 22.7 µM (inactive)
- GI50 (NCI-H226): 18.4 µM (inactive)
- GI50 (SR): 9.84 µM (inactive)
- GI50 (NCI/ADR-RES): 23.2 µM (inactive)
- GI50 (RPMI-8226): 13.5 µM (inactive)
- GI50 (SW-620): 61.9 µM (inactive)
- GI50 (U-251): 39.9 µM (inactive)
- GI50 (BT-549): 20.2 µM (inactive)
- GI50 (786-0): 42.1 µM (inactive)
- GI50 (HT-29): 30.6 µM (inactive)
- GI50 (Malme-3M): 24.4 µM (inactive)
- GI50 (HCT-15): 31 µM
- GI50 (OVCAR-5): 43 µM (inactive)
- GI50 (NCI-H460): 33.1 µM (inactive)
- GI50 (OVCAR-8): 24.6 µM (inactive)
- GI50 (EKVX): 18.5 µM (inactive)
- GI50 (MDA-N): 24 µM (inactive)
- GI50 (OVCAR-3): 29.5 µM (inactive)
- GI50 (SK-MEL-28): 34.2 µM (inactive)
- GI50 (COLO 205): 23.2 µM (inactive)
- GI50 (MCF7): 29 µM (inactive)
- GI50 (IGROV-1): 19.6 µM (inactive)
- GI50 (SNB-75): 11.7 µM (inactive)
- GI50 (A498): 28.4 µM (inactive)
- GI50 (SNB-19): 64.7 µM (inactive)
- GI50 (K562): 24 µM (inactive)
- GI50 (SK-OV-3): 23.9 µM (inactive)
- GI50 (T47D): 2.09 µM (inactive)
- GI50 (LOX IMVI): 24.2 µM (inactive)
- GI50 (CAKI-1): 58.2 µM (inactive)
- GI50 (NCI-H23): 30.4 µM (inactive)

SMILES: ClC1(Cl)C(c2ccccc2)C1c1ccccc1 (stereo not drawn)
- GI50 (DU-145): 42.2 µM (inactive)
- GI50 (A549): 23 µM (inactive)
- GI50 (UO-31): 26.9 µM (inactive)
- GI50 (UACC-62): 29.5 µM (inactive)
- GI50 (HCT-116): 23.9 µM (inactive)
- GI50 (MOLT-4): 26.7 µM (inactive)
- GI50 (SF-268): 32.4 µM (inactive)
- GI50 (HOP-62): 23.2 µM (inactive)
- GI50 (M14): 27.7 µM (inactive)
- GI50 (Hs-578T): 20.7 µM (inactive)
- GI50 (SN12C): 39.4 µM (inactive)
- GI50 (RXF 393): 14.4 µM (inactive)
- GI50 (ACHN): 25.6 µM (inactive)
- GI50 (KM12): 21.4 µM (inactive)
- GI50 (TK-10): 54 µM (inactive)
- GI50 (SK-MEL-2): 13.8 µM (inactive)
- GI50 (MDA-MB-231): 54.2 µM (inactive)
- GI50 (PC-3): 62.2 µM (inactive)
- GI50 (MDA-MB-435): 7.35 µM (inactive)
- GI50 (UACC-257): 30.7 µM (inactive)
- GI50 (NCI-H226): 14.6 µM (inactive)
- GI50 (SR): 7.64 µM (inactive)
- GI50 (NCI/ADR-RES): 7.16 µM (inactive)
- GI50 (RPMI-8226): 24.4 µM (inactive)
- GI50 (SF-295): 17.8 µM (inactive)
- GI50 (SW-620): 22.2 µM (inactive)
- GI50 (U-251): 41.3 µM (inactive)
- GI50 (BT-549): 33.4 µM (inactive)
- GI50 (OVCAR-4): 44.6 µM (inactive)
- GI50 (786-0): 28.5 µM (inactive)
- GI50 (HCC 2998): 11.1 µM (inactive)
- GI50 (HCT-15): 21.6 µM
- GI50 (OVCAR-5): 43.6 µM (inactive)
- GI50 (NCI-H460): 13.2 µM (inactive)
- GI50 (OVCAR-8): 21.2 µM (inactive)
- GI50 (EKVX): 18.3 µM (inactive)
- GI50 (MDA-N): 5.32 µM (inactive)
- GI50 (OVCAR-3): 21.1 µM (inactive)
- GI50 (SK-MEL-28): 41.7 µM (inactive)
- GI50 (COLO 205): 36 µM (inactive)
- GI50 (MCF7): 56 µM (inactive)
- GI50 (SNB-75): 46 µM (inactive)
- GI50 (A498): 38.8 µM (inactive)
- GI50 (SNB-19): 25.9 µM (inactive)
- GI50 (K562): 9.68 µM (inactive)
- GI50 (SK-OV-3): 18.8 µM (inactive)
- GI50 (T47D): 34.6 µM (inactive)
- GI50 (LOX IMVI): 28.2 µM (inactive)
- GI50 (CAKI-1): 30 µM (inactive)
- GI50 (NCI-H23): 24.6 µM (inactive)

SMILES: C=CCOc1ccccc1C1(O)c2ccccc2C2=NCCCN21 (stereo not drawn)
- GI50 (DU-145): 57.9 µM (inactive)
- GI50 (A549): > 100 µM (inactive)
- GI50 (SK-MEL-5): 25.6 µM (inactive)
- GI50 (UO-31): > 100 µM (inactive)
- GI50 (UACC-62): 40.9 µM (inactive)
- GI50 (HCT-116): 34.2 µM (inactive)
- GI50 (MOLT-4): 32.9 µM (inactive)
- GI50 (SF-268): > 100 µM (inactive)
- GI50 (CCRF-CEM): 33 µM (inactive)
- GI50 (SF-539): 17.6 µM (inactive)
- GI50 (HOP-62): 18.9 µM (inactive)
- GI50 (M14): 18.7 µM (inactive)
- GI50 (Hs-578T): 77.8 µM (inactive)
- GI50 (SN12C): 74.1 µM (inactive)
- GI50 (ACHN): 37.8 µM (inactive)
- GI50 (KM12): 32.4 µM (inactive)
- GI50 (TK-10): 90.8 µM (inactive)
- GI50 (MDA-MB-231): > 100 µM (inactive)
- GI50 (PC-3): 20.7 µM (inactive)
- GI50 (MDA-MB-435): 30.9 µM (inactive)
- GI50 (UACC-257): 30.9 µM (inactive)
- GI50 (HL-60): 26.8 µM (inactive)
- GI50 (NCI-H226): 31.8 µM (inactive)
- GI50 (SR): > 100 µM (inactive)
- GI50 (NCI/ADR-RES): > 100 µM (inactive)
- GI50 (RPMI-8226): 35.6 µM (inactive)
- GI50 (SF-295): 31 µM (inactive)
- GI50 (SW-620): 56.5 µM (inactive)
- GI50 (U-251): 46.5 µM (inactive)
- GI50 (BT-549): 81.1 µM (inactive)
- GI50 (OVCAR-4): 70.3 µM (inactive)
- GI50 (786-0): 47.3 µM (inactive)
- GI50 (HOP-92): 56.9 µM (inactive)
- GI50 (HCC 2998): 15.7 µM (inactive)
- GI50 (HT-29): 19.5 µM (inactive)
- GI50 (HCT-15): > 100 µM
- GI50 (OVCAR-5): 32.3 µM (inactive)
- GI50 (NCI-H460): 78.9 µM (inactive)
- GI50 (OVCAR-8): 19.5 µM (inactive)
- GI50 (EKVX): 56.1 µM (inactive)
- GI50 (MDA-N): 39.9 µM (inactive)
- GI50 (OVCAR-3): 22.2 µM (inactive)
- GI50 (SK-MEL-28): 20.4 µM (inactive)
- GI50 (COLO 205): 21.4 µM (inactive)
- GI50 (MCF7): 31.5 µM (inactive)
- GI50 (IGROV-1): 16.8 µM (inactive)
- GI50 (SNB-75): 15.1 µM (inactive)
- GI50 (A498): > 100 µM (inactive)
- GI50 (SNB-19): 33.5 µM (inactive)
- GI50 (K562): 45.3 µM (inactive)
- GI50 (SK-OV-3): > 100 µM (inactive)
- GI50 (T47D): > 100 µM (inactive)
- GI50 (LOX IMVI): 38.1 µM (inactive)
- GI50 (CAKI-1): > 100 µM (inactive)
- GI50 (NCI-H23): 30.8 µM (inactive)
